The text below walks through data of patent US5932742A, “Arylsulfonylimidazolone derivatives as an antitumor agent” (priority 1996, dated 1999).

The conditions of series [1]: literature; cited from earlier work.
Series [2] relates to A549 (ATCC CCL 185): human lung carcinoma. Kind of series: In vitro antitumor activity, MTT assay, A549. In kind it is cell-based. The conditions noted are these: Homo sapiens, A549, 48 h. In a few lines:
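A549 cells in RPMI 1640 with 10% FBS, 10,000 cells/well, pre-cultured 24 hrs, then exposed 48 hrs at 37° C to compound at 20 to 0.00128 μg/ml final (5-fold steps, DMSO below 0.5%). MTT added for 4 hrs, formazan dissolved in DMSO and read at 540nm; IC50 by linear regression of % of control.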
Background: Formazan colour is commonly taken as a measure of viable cells.

The subject of series [3] is K562 (ATCC CCL 243): human chronic myelogenous leukemia. Kind of series: In vitro antitumor activity, MTT assay, K562. The series is classed as cell-based. Particulars: Homo sapiens, K562, 48 h. The procedure, abridged: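 K562 cells (10,000/well) pre-cultured 24 hrs, then exposed 48 hrs at 37° C. to serially 5-fold diluted compound, final 20 μg/ml to 0.00128 μg/ml, DMSO below 0.5%. MTT added 4 hrs; formazan dissolved in DMSO, A540 read. Cytotoxicity as test/control absorbance; IC50 by linear regression.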

In series [4] the test system is Colo205 (ATCC CCL 222): human colon adenocarcinoma. Put plainly: In vitro antitumor activity, MTT assay, Colo205. In kind it is cell-based. Particulars: Homo sapiens. In a few lines: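 Colo205 cells in RPMI 1640/10% FBS were exposed 48 h at 37 °C to 5-fold serial dilutions, final 20 to 0.00128 µg/ml, DMSO below 0.5%. MTT added for 4 h, formazan dissolved in DMSO, A540 read versus medium control; IC50 by linear regression.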

The test system of series [5] is SK-OV-3 (ATCC HTB 77): human ovarian adenocarcinoma. Kind of series: In vitro antitumor activity, MTT assay, SK-OV-3. The series is classed as cell-based. Particulars: Homo sapiens. In a few lines:
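Cells seeded at 10,000 per well, grown 24 h, then exposed 48 h at 37 °C to compound at final 20 to 0.00128 μg/ml (5-fold dilutions, DMSO below 0.5%). MTT added for 4 h, formazan dissolved in DMSO, absorbance read at 540 nm; IC50 estimated by linear regression.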

In series [6] the test system is solid tumors and human tumor xenogafts. The conditions noted are these: J. Med. Chem., 1990, 33, 2393; cited from earlier work.
The nature of series [7]: Acute toxicity test (LD50). In kind it is in vivo. Particulars: in vivo, po; gastric lavage, male Wistar rat; probit method; 95% confidence interval in parenthesis on the next line. On the procedure:
(§1) Acute toxicity test (LD50)
(§2) Male Wistar Rat (Charles River Japan, ca, 6 weeks old) was used as test animal and sodium-carboxymethylcellulose (Na-CMC, Sigma Chemical, U.S.A.) was used as a vehicle control. Compounds 57 and 65 were suspended in 0.5% Na-CMC, respectively, before dosing. Test compounds were administered by gastric lavage with the dosage of 400, 550, 700, 850 and ^1000 mg/kg. Control group was treated only with 0.5% Na-CMC. Each group was consisted of 5 rats.

A further series deals with Male Wistar Rat. Put plainly: Acute toxicity test (LD50). In kind it is in vivo. Particulars: gastric lavage. On the procedure:
as §1, §2

Series [8] concerns Colon 26 murine colon cancer cell. Kind of series: In vivo antitumor activity against Colon 26 murine colon cancer cell. More on the design: species or system Balb/C mouse. Particulars: 65 mg/kg p.o., once per 2 days for 10 days; tumor weight. On the procedure:
In vivo antitumor activity against Colon 26 murine colon cancer cell
Colon 26 murine cancer cells were injected into Balb/C mouse intradermally and grown in mouse abdominal skin to a solid tumor. The Colon 26 tumors were periodically excised from the mouse, digested with an enzyme mixture containing collagenase and DNase, and then intradermally reinjected into mouse for subculture.
The cells were washed, resuspended in saline (5×10^6 cells/ml) and inoculated (5×10^5 cells/0.1 ml) intradermally to abdominal part of Balb/C mouse of which hair was removed in advance. Each test compound was dissolved in a solvent mixture of 60% propylene glycol(PG), 40% cremophor RH60(CP), and distilled water(DW) in the volume ratio of 30:20:50. When the size of tumor reached at appropriate level, the test compound was administered orally into the mouse which was implanted with colon 26 tumor cells in the frequency of once per 2 days for 10 days. The vehicle was also administered into the mouse of control group. The major and minor axis of tumor in each group were regularly measured by vernier calipers to estimate the increase of the tumor volume. Tumor volume was calculated on the basis of the following formula
Tumor volume(mm^3)=(1/2)×[length of major axis(mm)]×[length
When the tumor volume of the control group reached at about 1500 mm^3, the test animals were sacrificed by cervical dislocation and tumor was carefully excised and weighed. The inhibition rate of tumor growth (%) of each test compound was calculated as follows: […]
group.div.Tumor weight of control group)]

Series [9] deals with P388 murine leukemia cells. Put plainly: In vivo antitumor activity against P388 murine leukemia cell. The arrangement: species or system BDF1 mouse. Particulars: once per 2 days for 10 days, median survival time. On the procedure:
In vivo antitumor activity against P388 murine leukemia cell
P388 murine leukemia cells were injected into BDF1 mouse intraperitoneally and grown in the peritoneal cavity. The P388 cells were periodically exudated and reinjected intraperitoneally into mouse for subculture.
The cells were exudated, washed, resuspended in saline (2×10^7 cells/ml), and then injected intraperitoneally again into BDF1 mouse (2×10^6 cells/0.1 ml).
Test compound dissolved in appropriate vehicle was administered intraperitonealy or orally into the mouse which was implanted with P388 murine leukemia tumor cells in the frequency of once per 2 days for 10 days. The vehicle was administered into the mouse of control group. Then, the number of live animals were daily checked to estimate the median survival time (MST).
T/C ratio(%) of each test compound was calculated according to the following formula, and the test results are shown in Table 6.
T/C(%)=(MST of test group.div.MST of control group)×100

The structures appear in SMILES notation. In brackets after ≈: the same amount, converted by molar mass. Entries after “also recorded” stand apart in the source; their conditions may differ. Structures can show the parent of a compound that is named as a salt. Where two headings read alike, the source gives them in different places.

Broadly, the IC50 is the concentration that gives 50% inhibition. As for `O=C(Nc1ccc(Cl)cc1)NS(=O)(=O)c1ccc2c(c1)CCC2` [Sulofenur, reference compound], the side effects entry in [1] is “does not produce serious side effects including myelosuppression, nausea, vomiting, alopecia, mucositis, and hepatotoxicity; also recorded: only shows minor side effects such as anemia or methemoglobinemia”. Further, the IC50 in [2] (Table 1) is 12.8 µg/mL (≈ 36.4 µM); in [2] (Table 3), 12.8 µg/mL (≈ 36.4 µM); in series [2] (Table 4), 12.8 µg/mL (≈ 36.4 µM); in [2] (Table 5), 12.8 µg/mL (≈ 36.4 µM); in series [3] (Table 3, read-out: IC50 (K562)) it was 17.6 µg/mL (≈ 50.1 µM); in [3] (Table 4, read-out: IC50 (K562)), 17.6 µg/mL (≈ 50.1 µM). For the same compound, the 50% inhibitory concentration (IC50) is 17.6 µg/mL (≈ 50.1 µM) in [3] (Table 5, read-out: IC50 (K562)); 48.9 µg/mL (≈ 139 µM) in series [4] (COLO 205, Table 3, 48 hrs, read-out: IC50 (Col205)); 48.9 µg/mL (≈ 139 µM) in [4] (COLO 205, Table 5, 48 hrs, read-out: IC50 (Colo205)); 78.2 µg/mL (≈ 223 µM) in series [5] (SK-OV-3, Table 5, 48 hrs). Moreover, the antitumor activity entry in [6] is “exhibits potent antitumor activity upon solid tumors; also recorded: exceptionally broad spectrum of activity upon solid tumors and human tumor xenogafts”.
A word on the LD50: it is the dose at which mortality reaches 50%. Take `Nc1ccc(C(=O)N2CCc3cc(S(=O)(=O)N4CC(c5ccccc5)NC4=O)ccc32)cc1` (centres unmarked) [Example 57, 4-phenyl-1-[N-(4-aminobenzoyl)indoline-5-sulfonyl]-4,5-dihydro-2-imidazolone.HCl]: the IC50 in [2] (Table 4) was found to be 0.09 µg/mL; in [3] (Table 4, read-out: IC50 (K562)), 0.203 µg/mL; in series [5] (SK-OV-3, Table 4, 48 hrs), 0.572 µg/mL. In series [7], the LD50 was found to be 644 mg/kg. The “Acute toxicity, animals per group (dead/total)” value is 0/5 in the series with Male Wistar Rat (400 mg/kg); 1/5 in the series with Male Wistar Rat (550 mg/kg); 3/5 in the series on Male Wistar Rat (700 mg/kg); 5/5 with Male Wistar Rat (850 mg/kg); 5/5 with Male Wistar Rat (1000 mg/kg). Moreover, the “Inhibition rate of tumor growth (%)” value in series [8] is listed as 67.4%. In addition, the “T/C rate (%)” value is 133.3% in series [9] (50 mg/kg p.o.), 146.0% in [9] (65 mg/kg p.o.), 166.7% in [9] (100 mg/kg i.p.) and 175.0% in series [9] (100 mg/kg p.o.).
